Data: patent US8524906B2, “Tetrahydrothiazolopyridine inhibitors of phosphatidylinositol 3-kinase” (Vertex Pharmaceuticals Incorporated, priority 2009, dated 2013)
Where “and” joins values, the source holds several entries; their conditions need not be identical. Equal values may be shown once.

The molecules below were run against PI3Kγ (Homo sapiens, UniProt P48736) (assay: PI3K Inhibition Assay (33P-ATP, PI(4,5)P2 substrate, filter plate scintillation counting)). Conditions: 3 μM ATP, 30 μM PI(4,5)P2, 2 nM final enzyme, 30 min at 25° C.; competitive tight binding Ki fit; read-out: Ki for PI3Kγ.
Assay type: biochemical
Experimental: One test well also contained 1.5 μL of DMSO with no compound. […] Using a Titertek Multidrop, 50 μL of Reaction Mix [100 mM HEPES pH 7.5, 50 mM NaCl, 10 mM DTT, 0.2 mg/mL BSA, 60 μM phosphatidylinositol(4,5)-bisphosphate diC16 (PI(4,5)P2; Avanti Polar Lipids, Cat. No. 840046P) and PI3K isoform of interest (see Table 3 for isoform concentrations)] was added to each well. To initiate the reaction, 50 μL of ATP Mix [20 mM MgCl2, 6 μM ATP (100 μCi/μmole ^33P-ATP)] was added each well, followed by incubating the wells for 30 min. at 25° C. Final concentrations in each well were 50 mM HEPES 7.5, 10 mM MgCl2, 25 mM NaCl, 5 mM DTT, 0.1 mg/mL BSA, 30 μM PI(4,5)P2, 3 μM ATP, and the PI3K isoform of interest (see Table 3). Final compound concentrations in each well ranged from 10 μM to 1 nM.
After incubation, the reactions in each well were quenched by addition of 50 μL of stop solution [30% TCA/Water, 10 mM ATP]. […] 50 μL of scintillation fluid was added to each well and the plate read on a Perkin-Elmer TopCount™ NXT liquid scintillation counter to obtain ^33P-counts representing inhibition values.
The value for the background well was subtracted from the value obtained for each test well and the data were fit to the competitive tight binding Ki equation described by Morrison and Stone, Comments Mol. Cell Biophys.

PI3Kγ, sequence (P48736 whole entry, species assumed): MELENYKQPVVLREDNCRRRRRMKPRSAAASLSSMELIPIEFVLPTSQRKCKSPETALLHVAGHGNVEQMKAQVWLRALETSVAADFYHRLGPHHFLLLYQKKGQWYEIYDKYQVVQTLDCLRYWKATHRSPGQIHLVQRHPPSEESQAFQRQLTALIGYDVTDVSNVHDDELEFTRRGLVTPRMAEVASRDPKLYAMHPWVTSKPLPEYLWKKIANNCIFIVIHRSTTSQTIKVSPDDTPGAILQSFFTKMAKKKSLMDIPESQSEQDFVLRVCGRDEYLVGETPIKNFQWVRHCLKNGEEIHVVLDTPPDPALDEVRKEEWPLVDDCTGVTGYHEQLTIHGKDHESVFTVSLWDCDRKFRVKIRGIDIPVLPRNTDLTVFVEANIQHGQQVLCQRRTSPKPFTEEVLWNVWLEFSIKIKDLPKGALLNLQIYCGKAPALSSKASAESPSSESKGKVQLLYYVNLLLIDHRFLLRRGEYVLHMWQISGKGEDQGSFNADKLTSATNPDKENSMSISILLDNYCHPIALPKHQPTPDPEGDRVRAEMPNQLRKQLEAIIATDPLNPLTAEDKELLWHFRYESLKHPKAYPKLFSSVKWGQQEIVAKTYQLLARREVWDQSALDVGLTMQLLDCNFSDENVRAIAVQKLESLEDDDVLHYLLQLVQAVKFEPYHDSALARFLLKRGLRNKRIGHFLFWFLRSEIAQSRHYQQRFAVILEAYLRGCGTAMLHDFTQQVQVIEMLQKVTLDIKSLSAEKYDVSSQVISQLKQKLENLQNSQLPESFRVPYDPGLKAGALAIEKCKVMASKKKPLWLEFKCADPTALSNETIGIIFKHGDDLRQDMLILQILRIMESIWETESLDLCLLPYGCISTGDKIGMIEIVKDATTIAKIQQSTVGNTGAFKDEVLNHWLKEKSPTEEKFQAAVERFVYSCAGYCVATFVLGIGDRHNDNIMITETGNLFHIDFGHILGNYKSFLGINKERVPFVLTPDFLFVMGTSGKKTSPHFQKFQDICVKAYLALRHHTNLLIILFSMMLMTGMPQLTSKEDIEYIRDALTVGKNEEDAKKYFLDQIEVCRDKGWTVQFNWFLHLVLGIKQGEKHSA

Q: How did the Ki turn out when `COCC(=O)Nc1nc2c(s1)CN(c1cncc(OC)c1)CC2` [Compound 4] was run?
A: < 0.1 µM

Q: Which Ki does the source give for `CCNC(=O)Nc1nc2c(s1)CN(c1cncc(C(F)(F)F)c1)CC2` [Compound 6] here?
A: < 0.1 µM

Q: For `CC(=O)Nc1nc2c(s1)CN(c1cncc(C(F)(F)F)c1)CC2` [Compound 7], which Ki is on record?
A: < 0.1 µM

Q: Which Ki does the source give for `COCC(=O)Nc1nc2c(s1)CN(c1cncc(C(F)(F)F)c1)CC2` [Compound 8] here?
A: < 0.1 µM

Q: Which Ki does the source give for `CCNC(=O)Nc1nc2c(s1)CN(c1cnc(OC)c(OC)c1)CC2` [Compound 10] here?
A: < 0.1 µM

Q: How did the Ki turn out when `CCCOCCNC(=O)Nc1nc2c(s1)CN(c1cncc(C(F)(F)F)c1)CC2` [Compound 12] was run?
A: < 0.02 µM

Q: Which Ki does the source give for `COc1ncc(N2CCc3nc(NC(C)=O)sc3C2)nc1OC` [Compound 14, N-(4,5,6,7-tetrahydro-5-(5,6-dimethoxypyrazin-2-yl)thiazolo[5,4-c]pyridin-2-yl)acetamide] here?
A: < 0.02 µM

Q: For `COc1cc(N2CCc3nc(NC=O)sc3C2)cnc1OC` [Compound 15], which Ki is on record?
A: < 0.1 µM

Q: `CCCOCCNC(=O)Nc1nc2c(s1)CN(c1cnc(OC)c(OC)c1)CC2` [Compound 16] was tested. Which Ki did it give?
A: < 0.1 µM

Q: With `CC(=O)Nc1nc2c(s1)CN(c1cncc(C(F)(F)F)n1)CC2` [Compound 17] as the molecule, how does the Ki read?
A: < 0.1 µM

Q: How did the Ki turn out when `COc1cncc(N2CCc3nc(Nc4cnccn4)sc3C2)c1` [Compound 18, 4,5,6,7-tetrahydro-5-(5-methoxypyridin-3-yl)-N-(pyrazin-2-yl)thiazolo[5,4-c]pyridin-2-amine] was run?
A: < 0.1 µM

Q: How did the Ki turn out when `COc1cc(N2CCc3nc(NC(=O)CCNC(=O)c4ccccn4)sc3C2)cnc1OC` [Compound 32] was run?
A: < 0.1 µM

Q: Which Ki does the source give for `COc1cc(N2CCc3nc(NC(=O)CNC(=O)c4ccccn4)sc3C2)cnc1OC` [Compound 33] here?
A: < 0.1 µM

Q: `CCOC(=O)CCCNC(=O)Nc1nc2c(s1)CN(c1cnc(Cl)c(OC)c1)CC2` [Compound 34] was tested. Which Ki did it give?
A: < 0.1 µM

Q: With `COCCNC(=O)Nc1nc2c(s1)CN(c1cnc(Cl)c(OC)c1)CC2` [Compound 35] as the molecule, how does the Ki read?
A: < 0.1 µM

Q: Which Ki does the source give for `COc1cc(N2CCc3nc(NC(=O)NCCCN(C)C)sc3C2)cnc1Cl` [Compound 37] here?
A: < 0.1 µM

Q: How did the Ki turn out when `COc1cc(N2CCc3nc(NC(=O)NCCc4cn(CCF)cn4)sc3C2)cnc1Cl` [Compound 38] was run?
A: < 0.1 µM

Q: For `CCOCCCNC(=O)Nc1nc2c(s1)CN(c1cnc(Cl)c(OC)c1)CC2` [Compound 39], which Ki is on record?
A: < 0.1 µM

Q: How did the Ki turn out when `COc1cc(N2CCc3nc(NC(=O)CCNC(C)=O)sc3C2)cnc1Cl` [Compound 44] was run?
A: < 0.1 µM

Q: How did the Ki turn out when `COc1cc(N2CCc3nc(NC(=O)NCCCO)sc3C2)cnc1Cl` [Compound 50] was run?
A: < 0.1 µM

Q: How did the Ki turn out when `COc1cc(N2CCc3nc(NC(=O)N4CC(OC)C4)sc3C2)cnc1Cl` [Compound 51] was run?
A: < 0.1 µM

Q: `CCOC(=O)CCNC(=O)Nc1nc2c(s1)CN(c1cnc(Cl)c(OC)c1)CC2` [Compound 52] was tested. Which Ki did it give?
A: < 0.02 µM and 0.003 µM and < 0.1 µM

Q: For `COc1cc(N2CCc3nc(NC(=O)N4CCCC4)sc3C2)cnc1Cl` [Compound 57], which Ki is on record?
A: < 0.1 µM

Same assay, conditions: Ki for PI3Kγ, 3 μM ATP, 30 μM PI(4,5)P2, 2 nM final enzyme, 30 min at 25° C.; competitive tight binding Ki fit

Q: `COc1cc(N2CCc3nc(NC(=O)NCCCl)sc3C2)cnc1OC` [Compound 11] was tested. Which Ki did it give?
A: < 0.1 µM

Q: `COc1cncc(N2CCc3nc(NC(=O)CF)sc3C2)c1` [Compound 19] was tested. Which Ki did it give?
A: < 0.1 µM
